From PMC3126777, “Selective anticancer activity of a hexapeptide with sequence homology to a non-kinase domain of Cyclin Dependent Kinase 4” (Molecular Cancer, 2011)
“Also recorded” adds a separate entry of the source.

How the values were obtained:
[1] = tested on: H1299 human non-small cell lung cancer cells; test: Necrosis assay by Trypan Blue exclusion, H1299; format: cell-based
Experimental: (§1) Necrosis Assay Cells were plated in triplicate in 96 well plates at concentrations of 500 cells per well (HT1299, MCF-7) or 1000 cells per well (H460, MRC5-hTERT) in the presence or absence of the relevant compound and assessed by Trypan Blue exclusion At 2,3,4 and 7 days after plating. To assay, cells were trypsinised off, stained with trypan blue in isotonic medium and live and dead cells separately counted visually by haemocytomter. Each data point is the mean of results from triplicate wells (Solid lines - Live cells, Broken lines - Dead Cells; Blue - Control, Red - THR53 200 μM).

MGHU-1 Carcinoma Bladder = test: Response of cancer cell line to 200 μM THR53 (morphology, clonogenic assay); format: cell-based, human; settings: MGHU-1, 200 μM; morphological changes at 5 days, clonogenic assays at 15 days
Experimental: (§2) The appearances of the disintegrating colonies in Figure 4B were not dissimilar to those of "starbursts" earlier reported in human in vitro cancer cell colonies undergoing spontaneous cell death. Table 5 lists 11 cell lines with complete response to 200 μM THR53. This relatively homogeneous therapeutic response to the same critical dose of THR53 markedly contrasts with the wide range of variability of in-vitro dose response of different cancer cell lines typically seen with conventional chemotherapeutic agents In addition to showing lack of toxicity towards normal human diploid fibroblasts, THR53 and related cyclic amphiphilic PRGPRP-containing peptides were not cytotoxic to normal diploid human keratinocytes growing as primary cultures (Figure 2B) or to MRC5-hTERT immortalised fibroblasts (Figures 4A and 5A).
(§3) All cell lines were from certified sources.

G361 Melanoma = test: as above; format: cell-based, human; settings: G361, 200 μM; morphological changes at 5 days, clonogenic assays at 15 days
Experimental: as §2, §3

[2] = tested on: MRC5-hTERT immortalised fibroblasts; test: Necrosis assay by Trypan Blue exclusion, MRC5-hTERT; format: cell-based
Experimental: as §1

[3] = tested on: MRC5-hTERT immortalised fibroblasts; test: Time lapse photomicrography, MRC5-hTERT; format: cell-based, human; settings: 200 μM; except for some generalised slowing of growth
Experimental: Progressive morphological changes in dying H460 cells exposed to 200 μM THR53 [additional file 1], contrasted with progressive cell division in untreated H460 cells [additional file 2] are shown as videos. Immortalised MRC5-hTERT fibroblasts, were unaffected by exposure to 200 μM THR53 except for some generalised slowing of growth (Figure 5A), [additional file 3] as compared to control, untreated, MRC5-hTERT cells [additional file 4]. RT112 cells were more sensitive to THR53 than H460 cells and died within 30 - 40 hours as compared to 96 hours for H460 and the majority of other human cancer cell lines investigated.
Figure 5 Time Lapse Photomicrography of MRC5-hTERT, RT112 human bladder cancer and […] human non-small cell lung cancer following exposure toTHR53. Cells were incubated in Ham's F12 + 10% FCS (control medium) or medium + 200 μM THR53. Morphological changes of vacuolation + cellar swelling are seen in RT112 at 33 hours after exposure to THR53 and in H460 at 90 hours after exposure to THR53. There was no evidence of cell blebbing or fragmentation. (see also videos)

[4] = tested on: MCF-7 human breast cancer cells; test: Necrosis assay by Trypan Blue exclusion, MCF-7; format: cell-based
Experimental: as §1

[5] = Preliminary pharmacokinetic experiments; format: in vivo; settings: maximum tolerated dose, species not given
[6] = tested on: normal diploid human keratinocytes; test: Morphological cytotoxicity in primary keratinocyte cultures; format: cell-based; settings: 200 μM THR53 (Figure 2B)
Experimental: as §2

[7] = tested on: H460 human non-small cell lung cancer cells; test: Necrosis assay by Trypan Blue exclusion, H460; format: cell-based
Experimental: as §1

NCI-H460 cells = test: Cellular ATP levels (CellTiter-Glo assay); format: cell-based, human; settings: H460, 100 μM THR53, between 48 and 96 hours, CellTiter-Glo luminescence
Experimental: Cellular ATP levels (CellTiter-Glo assay) Cells were grown, seeded and compound-treated as for the alamar Blue assay. A volume of the CellTiter-Glo reagent equal to the volume of cell culture media was added to the cells. Plates were mixed for 2 min on an orbital shaker to induce cell lysis before the plate was incubated at room temperature for 10 min to stabilize the signal. The luminescent signal was measured and the media only background was subtracted.

Cyc-[FPPRGPRPVKLALKLALK] (head to tail) [THR53, cyclic amphiphilic analogue, Cyc-[…]]
day at which necrotic cells are initially detectable ([1]; H1299, 200 μM): 3 days
necrosis detected by trypan blue uptake ([1]; H1299, 200 μM, 2, 3, 4 and 7 days after plating, triplicate wells): induces necrosis
response to THR53 (MGHU-1 Carcinoma Bladder): total cell death
response to THR53 (G361 Melanoma): total cell death
cytotoxicity to MRC5-hTERT immortalised fibroblasts ([2]; 200 μM (Figures 4A and 5A)): not cytotoxic
necrosis / viability by trypan blue exclusion ([2]; MRC5-hTERT, 200 μM, 2, 3, 4 and 7 days after plating, triplicate wells): unaffected; also recorded: not in MRC5-h-TERT immortalised fibroblasts
effect on MRC5-hTERT fibroblasts, time lapse [3]: unaffected
day at which necrotic cells are initially detectable ([4]; MCF-7, 200 μM): 3 days
necrosis detected by trypan blue uptake ([4]; MCF-7, 200 μM, 2, 3, 4 and 7 days after plating, triplicate wells): induces necrosis
plasma levels [5]: low plasma levels which were not persistent
cytotoxicity to normal diploid human keratinocytes [6]: not cytotoxic
day at which necrotic cells are initially detectable ([7]; H460, 200 μM): 3 days
necrosis detected by trypan blue uptake ([7]; H460, 200 μM, 2, 3, 4 and 7 days after plating, triplicate wells): induces necrosis
ATP levels (NCI-H460 cells): progressive diminution
